Measured values: article PMC4915074 (Nature communications, 2013)

Tested on: VEGF
Experiment: VEGF gene expression in THP1 cells by quantitative real-time PCR
Assay type: cell-based, human
Conditions: 10 ng/mL (1.66 nM), 2 h, vs vehicle

relaxin
increase in relative expression of VEGF mRNA: 2.4 fold
